Some results are limits rather than exact numbers.

One assay has as its target WT human STING isoform (Homo sapiens (Human), UniProt Q86WV6, H232R). Nature of the assay: THP-1-Dual KI-hSTING-R232 reporter cell line assay. The conditions noted are these: 24 h incubation, luminescence, normalized to ML RR-S2 CDA 40 μM; read-out: EC50 THP-1 Dual KI-hSTING-R232 cells. The assay is classed as cell-based. As for the experimental part: (§1) THP-1 STING Lucia ISG cells (InvivoGen #thpl-isg) were cultured in RPMI-1640 containing 2 mM L-glutamine, 25 mM HEPES, 100 μg/mL Normocin (InvivoGen) and 10% heat-inactivated FBS. Cells were seeded at a density of 7×10^5 cells/mL, maintained at 37° C./5% CO2, and passaged every 3-4 days. Selection pressure was maintained by the addition of 100 μg/mL Zeocin every second passage.
(§2) Assay conditions: cells were harvested and resuspended at a concentration of 5×10^5 cells/mL in fresh growth media. Of this cell preparation 20 μL per well was dispensed into 384 well cell culture plates (Greiner, #781098X) and incubated at 37° C./5% CO2 for 2 hours.
(§3) Concentration Response Curves (commonly 11 doses) were prepared by 2.5 fold serial dilution starting from 10 mM compound stock solution in DMSO. Compound dilutions were transferred into the cell culture plates using a pintool (0.1 μL transfer), control wells were matched for DMSO. Positive control wells received ML RR-S2 CDA (Med Chem Express HY12885B) in 5 μL of media to a final concentration of 40 μM. All other wells received additional 5 μL of media only to equalize volume. The plates were incubated for 24 h at 37° C./5% CO2.
(§4) For the detection step, QUANTI-Luc (InvivoGen #rep-qlc1) was prepared according to manufacturer's instruction and 10 μL were added per well to the culture plates. Plates were shaken for ten seconds on an orbital shaker and left in the dark at room temperature for two minutes, before luminescence was read on a Perkin Elmer Envision plate reader.
(§5) Data analysis: Luminescence raw data was normalized % activity relative to the signal of the positive control wells and negative control wells which were not treated with compound. The following formula was used to calculate normalized % activity from raw signals: % activity=(sample−negative)/(positive−negative)
(§6) The THP-1 STING Lucia ISG cell EC50 provides an assessment of activity at the human HAQ isoform of STING. For assessing compound activity against the WT human STING isoform, an equivalent method was conducted where the cells used were THP-1-Dual KI-hSTING-R232 (InvivoGen #thpd-r232).

For assay [1], the target named is human HAQ isoform of STING (Homo sapiens (Human), UniProt Q86WV6, G230A/H232R/R293Q/R71H). Nature of the assay: THP-1 STING Lucia ISG reporter cell line assay. The assay is classed as cell-based. The conditions noted are these: 24 h incubation, luminescence, normalized to ML RR-S2 CDA 40 μM; read-out: EC50 THP-I STING Lucia ISG cells. Here is the method:
as §1, §2, §3, §4, §5, §6

The next assay has as its target human STING (HAQ) (Homo sapiens (Human), UniProt Q86WV6, G230A/H232R/R293Q). Nature of the assay: Differential scanning fluorimetry (DSF), huSTING (HAQ). In kind it is binding. The conditions noted are these: compound 100 μM, 2 μM protein, Tm with ligand minus Tm of protein alone (1% DMSO). Here is the method: (§7) Data were analyzed using “Meltdown analysis” protocol described by Rosa (2015).

A further assay addresses human STING (WT) (Homo sapiens (Human), UniProt Q86WV6, H232R). Nature of the assay: Differential scanning fluorimetry (DSF), huSTING (WT). In kind it is binding. The conditions noted are these: compound 100 μM, 2 μM protein, Tm with ligand minus Tm of protein alone (1% DMSO). As for the experimental part:
as §7

human HAQ isoform of STING, sequence (Q86WV6 whole entry R71H/G230A/H232R/R293Q, canonical isoform): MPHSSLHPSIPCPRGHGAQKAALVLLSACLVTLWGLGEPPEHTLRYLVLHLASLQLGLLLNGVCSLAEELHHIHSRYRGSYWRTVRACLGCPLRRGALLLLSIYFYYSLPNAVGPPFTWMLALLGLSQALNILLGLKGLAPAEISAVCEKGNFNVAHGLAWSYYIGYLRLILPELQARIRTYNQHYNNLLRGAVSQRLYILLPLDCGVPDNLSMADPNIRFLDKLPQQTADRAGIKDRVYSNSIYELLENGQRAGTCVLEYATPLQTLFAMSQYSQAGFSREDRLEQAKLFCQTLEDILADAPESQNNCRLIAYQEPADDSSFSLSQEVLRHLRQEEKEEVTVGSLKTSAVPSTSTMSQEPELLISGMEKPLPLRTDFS
WT human STING isoform, sequence (Q86WV6 whole entry H232R, canonical isoform): as the sequence (Q86WV6 whole entry R71H/G230A/H232R/R293Q, canonical isoform) above, with H71R, A230G, Q293R counted along it
human STING (HAQ), sequence (Q86WV6 149-345 G230A/H232R/R293Q): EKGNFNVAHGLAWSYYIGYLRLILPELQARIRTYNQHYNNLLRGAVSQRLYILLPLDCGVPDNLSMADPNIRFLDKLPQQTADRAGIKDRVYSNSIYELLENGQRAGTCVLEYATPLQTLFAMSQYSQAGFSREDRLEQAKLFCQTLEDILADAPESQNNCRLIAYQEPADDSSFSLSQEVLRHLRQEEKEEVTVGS
human STING (WT), sequence (Q86WV6 149-345 H232R): as the sequence (Q86WV6 149-345 G230A/H232R/R293Q) above, with A82G, Q145R counted along it

In general, EC50 refers to the concentration needed to bring the measured effect to its halfway point. With `CCOC(=O)c1sc2cccc(C(F)(F)F)c2c1-c1nc2cc(C(N)=O)ccc2n1CCn1c(-c2c(C(=O)OCC)sc3cccc(C(F)(F)F)c23)nc2cc(C(N)=O)ccc21` [Example 18, Diethyl 3,3′-(ethane-1,2-diylbis(5-carbamoyl-1H-benzo[d]imidazole-1,2-diyl))bis(4-(trifluoromethyl)benzo[b]thiophene-2-carboxylate)], the EC50 on WT human STING isoform is more than 40 µM; in assay [1] it was 3.74 µM.
`CCOC(=O)c1sc2ccccc2c1-c1nc2cc(C(N)=O)ccc2n1CCn1c(-c2c(C(=O)OCC)sc3ccccc23)nc2cc(C(N)=O)ccc21` [Example 8, Diethyl 3,3′-(ethane-1,2-diylbis(5-carbamoyl-1H-benzo[d]imidazole-1,2-diyl))bis(benzo[b]thiophene-2-carboxylate)]: the EC50 (at WT human STING isoform; in assay [1]) was more than 40 µM in each case.
On to `COc1c(C(N)=O)ccc2c1nc(-c1c(C(=O)O)sc3cccc(Cl)c13)n2CCn1c(-c2c(C(=O)O)sc3cccc(Cl)c23)nc2c(OC)c(C(N)=O)ccc21` (single isomer, unassigned) [Example 22.2, 3,3′-(Ethane-1,2-diylbis(5-carbamoyl-4-methoxy-1H-benzo[d]imidazole-1,2-diyl))bis(4-chlorobenzo[b]thiophene-2-carboxylic acid)], for which the half-maximal effective concentration (EC50) on WT human STING isoform stood at 0.498 µM; in assay [1], 1.01 µM. Also, the “DSF huSTING (HAQ) ΔTm” value on human STING (HAQ) stood at 45.31 °C. Besides, on human STING (WT), the “DSF huSTING (WT) ΔTm” value stood at 35.685 °C.
Consider `CCOC(=O)c1sc2cccc(Br)c2c1-c1nc2cc(C(N)=O)ccc2n1CCn1c(-c2c(C(=O)OCC)sc3cccc(Br)c23)nc2cc(C(N)=O)ccc21` [Example 10, Diethyl 3,3′-(ethane-1,2-diylbis(5-carbamoyl-1H-benzo[d]imidazole-1,2-diyl))bis(4-bromobenzo[b]thiophene-2-carboxylate)], for which the half-maximal effective concentration (EC50) on WT human STING isoform worked out at 12.7 µM; in assay [1] it was 19.9 µM.
`CCOC(=O)c1sc2ccnc(OC)c2c1-c1nc2cc(C(N)=O)ccc2n1CCn1c(-c2c(C(=O)OCC)sc3ccnc(OC)c23)nc2cc(C(N)=O)ccc21` [Example 6, Diethyl 3,3′-(ethane-1,2-diylbis(5-carbamoyl-1H-benzo[d]imidazole-1,2-diyl))bis(4-methoxythieno[3,2-c]pyridine-2-carboxylate)]: the EC50 (at WT human STING isoform; in assay [1]) was more than 40 µM in each case.
For the compound `CCOC(=O)c1sc2cccc(C)c2c1-c1nc2cc(C(N)=O)ccc2n1CCn1c(-c2c(C(=O)OCC)sc3cccc(C)c23)nc2cc(C(N)=O)ccc21` [Example 14, Diethyl 3,3′-(1,1′-(ethane-1,2-diyl)bis(5-carbamoyl-1H-benzo[d]imidazole-2,1-diyl))bis(4-methylbenzo[b]thiophene-2-carboxylate)], the EC50 (on WT human STING isoform; in assay [1]) was more than 40 µM in each case.
For the compound `CCOC(=O)c1sc2c(F)ccc(Cl)c2c1-c1nc2cc(C(N)=O)ccc2n1CCn1c(-c2c(C(=O)OCC)sc3c(F)ccc(Cl)c23)nc2cc(C(N)=O)ccc21` [Example A2, Diethyl 3,3′-(ethane-1,2-diylbis(5-carbamoyl-1H-benzo[d]imidazole-1,2-diyl))bis(4-chloro-7-fluorobenzo[b]thiophene-2-carboxylate)], the figures for the EC50 (at WT human STING isoform; in assay [1]) were 3.17 µM and 9.53 µM, respectively.
As to `CCOC(=O)c1sc2c(F)ccc(OC)c2c1-c1nc2cc(C(N)=O)ccc2n1CCn1c(-c2c(C(=O)OCC)sc3c(F)ccc(OC)c23)nc2cc(C(N)=O)ccc21` [Example 12, Diethyl 3,3′-(ethane-1,2-diylbis(5-carbamoyl-1H-benzo[d]imidazole-1,2-diyl))bis(7-fluoro-4-methoxybenzo[b]thiophene-2-carboxylate)], the EC50 on WT human STING isoform came to 9.18 µM; in assay [1], 5.08 µM.
By ΔTm is commonly meant the change in melting temperature against a reference sample. For `NC(=O)c1ccc2c(c1)nc(-c1c(C(=O)O)sc3cccc(C(F)(F)F)c13)n2CCn1c(-c2c(C(=O)O)sc3cccc(C(F)(F)F)c23)nc2cc(C(N)=O)ccc21` (single isomer, unassigned) [Example 19.1, 3,3′-(Ethane-1,2-diylbis(5-carbamoyl-1H-benzo[d]imidazole-1,2-diyl))bis(4-(trifluoromethyl)benzo[b]thiophene-2-carboxylic acid)], the concentration giving a half-maximal response (EC50) on WT human STING isoform is 0.196 µM; in assay [1], 0.189 µM. In addition, the ΔTm at 100 µM on human STING (HAQ) turned out to be 21.4 °C. For the same compound, at human STING (WT), the “DSF huSTING (WT) ΔTm” value came to 9.38 °C.
In the case of `NC(=O)c1ccc2c(c1)nc(-c1c(C(=O)O)sc3cccc(Cl)c13)n2CCn1c(-c2c(C(=O)O)sc3cccc(Cl)c23)nc2cc(C(N)=O)ccc21` (single isomer, unassigned) [Example 1.2, 3,3′-(Ethane-1,2-diylbis(5-carbamoyl-1H-benzo[d]imidazole-1,2-diyl))bis(4-chlorobenzo[b]thiophene-2-carboxylic acid)], the EC50 was 6.33 µM on WT human STING isoform and 14.2 µM in assay [1]. The “DSF huSTING (HAQ) ΔTm” value at human STING (HAQ) worked out at 0.13 °C. For the same compound, the “DSF huSTING (WT) ΔTm” value at human STING (WT) is −7.14 °C.
With `CCOC(=O)c1sc2cccc(Cl)c2c1-c1nc2c(OC)c(C(N)=O)ccc2n1CCn1c(-c2c(C(=O)OCC)sc3cccc(Cl)c23)nc2c(OC)c(C(N)=O)ccc21` [Example 21, Diethyl 3,3′-(ethane-1,2-diylbis(5-carbamoyl-4-methoxy-1H-benzo[d]imidazole-1,2-diyl))bis(4-chlorobenzo[b]thiophene-2-carboxylate)], the half-maximal effective concentration (EC50) on WT human STING isoform is 0.007 µM; in assay [1], 0.019 µM. The figures for the thermal shift (ΔTm) at 100 µM at human STING (HAQ) and on human STING (WT) were 4.33 °C and 3.41 °C, respectively.
Take `CCOC(=O)c1sc2cccc(OCC)c2c1-c1nc2cc(C(N)=O)ccc2n1CCn1c(-c2c(C(=O)OCC)sc3cccc(OCC)c23)nc2cc(C(N)=O)ccc21` [Example 23, Diethyl 3,3′-(ethane-1,2-diylbis(5-carbamoyl-1H-benzo[d]imidazole-1,2-diyl))bis(4-ethoxybenzo[b]thiophene-2-carboxylate)]: the EC50 (at WT human STING isoform; in assay [1]) was more than 40 µM in each case.
Turning to `CCOC(=O)c1sc2cccc(C#N)c2c1-c1nc2cc(C(N)=O)ccc2n1CCn1c(-c2c(C(=O)OCC)sc3cccc(C#N)c23)nc2cc(C(N)=O)ccc21` [Example 16, Diethyl 3,3′-(ethane-1,2-diylbis(5-carbamoyl-1H-benzo[d]imidazole-1,2-diyl))bis(4-cyanobenzo[b]thiophene-2-carboxylate)], the concentration for a half-maximal effect (EC50) (at WT human STING isoform; in assay [1]) was more than 40 µM each time.
Regarding `NC(=O)c1ccc2c(c1)nc(-c1c(C(=O)O)sc3c(F)ccc(Br)c13)n2CCn1c(-c2c(C(=O)O)sc3c(F)ccc(Br)c23)nc2cc(C(N)=O)ccc21` (single isomer, unassigned) [Example 20.2, 3,3′-(Ethane-1,2-diylbis(5-carbamoyl-1H-benzo[d]imidazole-1,2-diyl))bis(4-bromo-7-fluorobenzo[b]thiophene-2-carboxylic acid)], the EC50 stood at 5.81 µM on WT human STING isoform and 14.7 µM in assay [1]. Also, the “DSF huSTING (HAQ) ΔTm” value on human STING (HAQ) is 0.44 °C. Further, the “DSF huSTING (WT) ΔTm” value at human STING (WT) was −4.12 °C.
Turning to `NC(=O)c1ccc2c(c1)nc(-c1c(C(=O)O)sc3cccc(C(F)(F)F)c13)n2CCn1c(-c2c(C(=O)O)sc3cccc(C(F)(F)F)c23)nc2cc(C(N)=O)ccc21` (single isomer, unassigned) [Example 19.2, 3,3′-(Ethane-1,2-diylbis(5-carbamoyl-1H-benzo[d]imidazole-1,2-diyl))bis(4-(trifluoromethyl)benzo[b]thiophene-2-carboxylic acid)], the EC50 at WT human STING isoform is 3.66 µM; in assay [1] it was 2.6 µM. Moreover, the “DSF huSTING (HAQ) ΔTm” value on human STING (HAQ) was 12.26 °C. Besides, at human STING (WT), the “DSF huSTING (WT) ΔTm” value was determined as 2.74 °C.
As for `COc1c(C(N)=O)ccc2c1nc(-c1c(C(=O)O)sc3cccc(Cl)c13)n2CCn1c(-c2c(C(=O)O)sc3cccc(Cl)c23)nc2c(OC)c(C(N)=O)ccc21` (single isomer, unassigned) [Example 22.1, 3,3′-(Ethane-1,2-diylbis(5-carbamoyl-4-methoxy-1H-benzo[d]imidazole-1,2-diyl))bis(4-chlorobenzo[b]thiophene-2-carboxylic acid)], the half-maximal effective concentration (EC50) amounted to 0.13 µM at WT human STING isoform and 0.256 µM in assay [1]. The ΔTm at 100 µM on human STING (HAQ) worked out at 45.5 °C; at human STING (WT), 37.7 °C.

The values are drawn from US12384801B2, “Benzothiophene, thienopyridine and thienopyrimidine derivatives for the modulation of sting” (CTXT PTY LTD, priority 2019, dated 2025).
